From paper PMC3536977, “4,6-α-Glucanotransferase activity occurs more widespread in Lactobacillus strains and constitutes a separate GH70 subfamily” (Applied Microbiology and Biotechnology, 2012)

Molecular target: T1, 4,6-αGT-ML4 (Limosilactobacillus reuteri, UniProt Q5SBN1)
T1 construct: full-length 180 kDa
Experiment: 1H NMR / TLC / HPAEC of product mixture
Type: biochemical
Settings: sodium acetate 25 mM pH 4.7, 1 mM CaCl2, 37 °C, 40 h, 25 μg/ml enzyme

T1 sequence (Q5SBN1 entry or part of it): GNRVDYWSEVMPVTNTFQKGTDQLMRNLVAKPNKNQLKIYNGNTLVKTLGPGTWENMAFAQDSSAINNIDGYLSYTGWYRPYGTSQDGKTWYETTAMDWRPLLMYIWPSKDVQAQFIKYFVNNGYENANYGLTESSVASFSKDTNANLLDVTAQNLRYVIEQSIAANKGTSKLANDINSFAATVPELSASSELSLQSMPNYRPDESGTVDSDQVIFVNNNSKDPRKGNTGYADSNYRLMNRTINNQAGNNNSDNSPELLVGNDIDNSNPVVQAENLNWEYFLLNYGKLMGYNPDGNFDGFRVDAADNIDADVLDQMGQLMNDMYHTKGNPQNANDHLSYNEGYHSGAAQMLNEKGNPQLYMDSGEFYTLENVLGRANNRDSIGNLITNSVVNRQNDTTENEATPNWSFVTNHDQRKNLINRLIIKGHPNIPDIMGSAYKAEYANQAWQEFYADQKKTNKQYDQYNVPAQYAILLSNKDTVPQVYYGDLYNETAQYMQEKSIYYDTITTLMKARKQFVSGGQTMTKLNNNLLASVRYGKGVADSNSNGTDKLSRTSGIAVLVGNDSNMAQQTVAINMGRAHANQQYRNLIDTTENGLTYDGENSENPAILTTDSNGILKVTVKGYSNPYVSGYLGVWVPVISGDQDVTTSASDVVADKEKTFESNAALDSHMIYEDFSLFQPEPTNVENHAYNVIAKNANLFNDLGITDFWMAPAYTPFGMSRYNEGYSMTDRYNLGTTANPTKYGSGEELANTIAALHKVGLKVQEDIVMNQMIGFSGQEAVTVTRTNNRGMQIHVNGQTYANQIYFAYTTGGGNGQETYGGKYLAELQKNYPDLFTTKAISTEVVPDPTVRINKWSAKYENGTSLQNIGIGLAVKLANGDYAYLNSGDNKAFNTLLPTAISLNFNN

OC[C@H]1O[C@H](O[C@H]2[C@H](O)[C@@H](O)[C@@H](O[C@H]3[C@H](O)[C@@H](O)[C@@H](O[C@H]4[C@H](O)[C@@H](O)[C@@H](O[C@H]5[C@H](O)[C@@H](O)[C@@H](O[C@H]6[C@H](O)[C@@H](O)C(O)O[C@@H]6CO)O[C@@H]5CO)O[C@@H]4CO)O[C@@H]3CO)O[C@@H]2CO)[C@H](O)[C@@H](O)[C@@H]1O (stereo partly shown) [DP6, maltohexaose]
1H NMR / TLC / HPAEC of product mixture: generated from maltohexaose, showing a linkage ratio
